{"source": "patent US7399460B2", "about": "“Metal complexes derivatized with folate for use in diagnostic and therapeutic applications” (Bracco International B.V., priority 1998, dated 2008)", "key": {"[1]": {"molecular_target": "T1, folate binding protein on the KB cells (Homo sapiens, UniProt P15328)", "T1 construct": "host or cells: KB cells", "T1 sequence (P15328 25-234)": "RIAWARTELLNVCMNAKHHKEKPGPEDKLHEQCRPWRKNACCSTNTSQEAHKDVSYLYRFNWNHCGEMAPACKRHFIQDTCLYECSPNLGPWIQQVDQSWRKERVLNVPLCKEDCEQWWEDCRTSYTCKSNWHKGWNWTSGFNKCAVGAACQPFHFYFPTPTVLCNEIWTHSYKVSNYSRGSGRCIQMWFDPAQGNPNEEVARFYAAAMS", "test": "Binding of alpha and gamma isomers of ^99mTc-oxa-folate to KB cells at 4° C.", "details": "30 min; for competition with native folate for folate binding protein on KB cells: plus 250-260 pmol cold native folate, 4° C. (FIG. 4, white bars); for binding to KB cells relative to that observed with 10 pmol of ^3H-folate: trace amounts (~0.5 μCi), 4° C., no cold folate (FIG. 4, dark bars)", "description": "The ability of the alpha and gamma isomers of ^99mTc-oxa-folate to bind to KB cells was studied at 4° C. KB cells (˜5×10^5 cells/well) were seeded into 35-mm wells and incubated for 48 hours as described in example 17 above. The alpha and gamma isomers of ^99mTc-oxa-folate, were prepared and purified as described in examples 14 and 16. The cells were then cooled to 4° C. for 30 min and incubated with the following mixtures for 30 min at 4° C.: • 1. 10 pmol of ^3H-folate • 2. 10 pmol of ^3H-folate and 250 pmol of native folate • 3. […] Trace amounts (˜0.5 μCi) of ^99mTc-Oxa-γ-folate • 6. Trace amounts (˜0.5 μCi) of ^99mTc-Oxa-γ-folate and 260 pmol of native folate\n(§1) Following the incubation period, the cells were washed 3 times with ice-cold Tris-buffered saline. The cells were then stripped from the plates using 1.0 mL of water. Aliquots of the water/cell mixture were assayed for the respective radioisotopes and for cellular protein (to determine the number of KB cells present in each well). The radioassay data were used to calculate the % of radiolabeled compound bound to the cells in the absence and presence of unlabeled native folate. Data in FIG. 4 are presented as the percentage bound, relative to the % bound in the control wells containing 10 pmol of ^3H-folate."}, "[2]": {"molecular_target": "T2, JAR cells (Homo sapiens, UniProt P15328)", "T2 construct": "host or cells: JAR cells", "T2 sequence (P15328 25-234)": "as above", "test": "Binding of ^153Gd-folates or ^3H folate to JAR cells at 37° C.", "description": "(§2) Cell culture: KB cells (a human nasopharyngeal epidermal carcinoma cell line) and JAR cells (a human choriocarcinoma cell line) were obtained from ATCC (American Type Culture Collection). Both cell lines are reported to overexpress transcripts encoding folate binding protein. […] The media for each cell line was supplemented with 10% defined fetal calf serum (HyClone, Inc.) Monolayers were cultured at 37° C. in a humidified atmosphere containing 5% CO2.\n(§3) Forty-eight hours prior to each experiment, 5×10^5 cells were seeded into 35 mm culture dishes and allowed to grow for 2 days in folate-depleted media. The cells were then washed with Tris-buffered saline (TBS=150 mM NaCl, 50 mM Tris, pH 7.5) and 1 mL of fresh media containing 10 pmol ^153Gd-DO3A-APA-folate (α or γ isomer) and 0-900 pmol of cold native folate per sample was added. Control experiments were performed using 10 pmol of ^3H folate (Amersham International) and 0-900 pmol of cold native folate. The cells were incubated for 30 min at 37° C. They were then washed three times with ice cold TBS and suspended in one ml of water. Cell associated radioactivity was determined by gamma (^153Gd-folate) or scintillation counting (^3H-folate) of a 500 μl aliquot of this suspension; 100 μl was used in the BCA protein assay (Pierce catalog # 23225), which was used to determine and normalize for cellular protein content."}, "[3]": {"molecular_target": "T1, folate binding protein on the KB cells", "test": "Binding of ^3H-folate and alpha or gamma isomer of ^153Gd-DO3A-APA-folate to KB cells at 4° C. with and without excess folate", "details": "30 min", "description": "In a second experiment, the ability of the alpha and gamma isomers of ^153Gd-DO3A-APA-folate to bind to KB cells at 4° C. was studied. KB cells (˜5×10^5 cells/well) were seeded into 35-mm wells and incubated for 48 hours as described above. The cells were then cooled to 4° C. for 30 min and incubated with the following mixtures for 30 min at 4° C.: • 1. 10 pmol of ^3H-folate • 2. 10 pmol of ^3H-folate and 250 pmol of native folate • 3. 10 pmol of ^153Gd/Gd(DO3A-APA-α-folate) • 4. 10 pmol of ^153Gd/Gd(DO3A-APA-α-folate) and 250 pmol of native folate • 5. 10 pmol of ^153Gd/Gd(DO3A-APA-γ-folate) • 6. 10 pmol of ^153Gd/Gd(DO3A-APA-γ-folate) and 250 pmol of native folate\nas §1, with “ice-old” for “ice-cold”, “2” for “4”"}, "[4]": {"molecular_target": "T3, folate binding protein on KB cells (Homo sapiens, UniProt P15328)", "T3 construct": "host or cells: KB cells", "T3 sequence (P15328 25-234)": "as above", "test": "Binding of ^153Gd-DO3A-APA-folate (α or γ isomer) or ^3H folate to KB cells at 37° C. in competition with cold native folate", "details": "10 pmol labelled compound, 0-900 pmol cold native folate, 30 min, FIG. 1", "description": "as §2, §3"}, "[5]": {"molecular_target": "cell surface FBP (Homo sapiens, UniProt P15328)", "sequence (P15328 25-234)": "as above", "details": "in the presence of an equimolar amount of conjugate; cited from earlier work"}, "[6]": {"tested_on": "MA104 cells", "details": "cited from earlier work"}, "[7]": {"tested_on": "KB cells", "test": "In vitro exchange study with cold native folate in the medium, KB cells", "type": "cell-based, human", "details": "24 hours, 37° C., medium with cold native folate (250 nM), FIG. 4A", "description": "(§4) Exchange studies were performed to examine the effect of native folate on the radioactivity levels in KB or JAR cells that had been pre-loaded with a saturating level of radiolabeled Gd-folates or native folate in vitro. ^3H-folate, ^153Gd-DO3A-APA-(γ)-folate or ^153Gd-DO3A-APA-(α)-folate (250 pmol) was incubated with KB or JAR cells as described in Example 18. At the end of the 30-min incubation period, these ^153Gd-folate or ^3H-folate-loaded cells were washed five times with ice-cold media containing 250 nM cold, native folate and were then incubated at 37° C. for 24 hours with media that contained 250 pmol of cold folate. At predetermined intervals during this time, the incubation medium was removed and replaced with fresh medium at 37° C. The radioactivity present in each aliquot of the incubation medium was used to determine the rate at which radioactivity from the ^3H-folate, ^153Gd-DO3A-APA-(γ)-folate or ^153Gd-DO3A-APA-(α)-folate washed out of the cells. At the end of the study, the cells were suspended in one ml of water and assayed for radioactivity and protein content."}, "[8]": {"molecular_target": "T2, JAR cells", "test": "In vitro exchange study with cold native folate in the medium, JAR cells", "type": "cell-based", "description": "as §4"}, "[9]": {"tested_on": "JAR tumors", "test": "Biodistribution at MRI dose level in nude mice with subcutaneous JAR tumors", "details": "60 min, 79.2 μmol/kg dose", "experimental": "Biodistribution studies were performed using female nu/nu mice implanted with subcutaneous JAR tumors using the general procedures described in the example above. Animals were sacrificed 60 min post IV injection of an “MRI” dose level (0.1 mmol/kg) of ^153Gd/Gd-DO3A-APA-(α)-folate, ^153Gd/Gd-DO3A-APA-(γ)-folate or Bis(^153Gd/Gd-DO3A-APA)folate and selected organs were removed, weighed, and assayed for radioactivity, in order to determine the % injected dose/g-tissue (% ID/g) in the tumors."}}, "data": [{"molecule": "99m-Technetium complex of 12-(N-Pteroyl-γ-L-glutamyl)-3,3,9,9-tetramethyl-5-oxa-4,8-diaza-2,10-dodecanedione dioxime [^99mTc-Oxa-γ-folate]", "values": [{"measurement": "competition with native folate for folate binding protein on KB cells", "setting": "[1]", "result": "do compete for folate binding protein on the KB cells"}, {"measurement": "binding to KB cells relative to that observed with 10 pmol of ^3H-folate", "setting": "[1]", "result": "to the same extent"}]}, {"molecule": "99m-Technetium complex of 12-(N-Pteroyl-α-L-glutamyl)-3,3,9,9-tetramethyl-5-oxa-4,8-diaza-2,10-dodecanedione dioxime [^99mTc-Oxa-α-folate]", "values": [{"measurement": "competition with native folate for folate binding protein on KB cells", "setting": "[1]", "result": "do compete for folate binding protein on the KB cells"}, {"measurement": "binding to KB cells relative to that observed with 10 pmol of ^3H-folate", "setting": "[1]", "result": 140, "unit": "%"}]}, {"molecule": "^153Gd-DO3A-APA-(γ)-folate", "values": [{"measurement": "ability to compete with cold native folate for binding to the JAR cells", "setting": "[2]; 10 pmol, 0-900 pmol cold folate, 30 min, 37° C.", "result": "equally effective"}, {"measurement": "binding to JAR cells compared with the radiolabeled control (^3H-folate)", "setting": "[2]; comparable test conditions, FIG. 1A", "result": "about half as effective"}, {"measurement": "competition with native folate for folate binding protein on KB cells", "setting": "[3]; 10 pmol plus 250 pmol cold native folate, 4° C. (FIG. 2, white bars)", "result": "do compete for folate binding protein on the KB cells"}, {"measurement": "binding to KB cells compared with 10 pmol of ^3H-folate", "setting": "[3]; 10 pmol, 4° C., no cold folate (FIG. 2, dark bars)", "result": "to the same extent"}, {"measurement": "amount bound to the KB cells", "setting": "[4]", "result": "No significant differences"}]}, {"molecule": "CC(=O)N(O)CCCCCNC(=O)CCC(=O)N(O)CCCCCNC(=O)CCC(=O)N(O)CCCCCNC(=O)C(CCC(=O)O)NC(=O)c1ccc(NCc2cnc3nc(N)[nH]c(=O)c3n2)cc1", "note": "(single isomer, unassigned) [DF-folate (α) isomer]", "values": [{"measurement": "decrease in bound ^3H folic acid", "setting": "[5]", "result": "no ability to compete"}]}, {"molecule": "CC(=O)N(O)CCCCCNC(=O)CCC(=O)N(O)CCCCCNC(=O)CCC(=O)N(O)CCCCCNC(=O)CCC(NC(=O)c1ccc(NCc2cnc3nc(N)[nH]c(=O)c3n2)cc1)C(=O)O", "note": "(stereo not drawn) [DF-folate (γ) conjugate]", "values": [{"measurement": "decrease in bound ^3H folic acid", "setting": "[5]", "result": 50, "unit": "%"}]}, {"molecule": "CC(C)(C)OC(=O)NCCCC(CCCNC(=O)OC(C)(C)C)(CCCNC(=O)OC(C)(C)C)NC(=O)CCC(=O)NC(CCC(=O)OCc1ccccc1)(CCC(=O)OCc1ccccc1)CCC(=O)OCc1ccccc1", "note": "[Example 11, N-[1,5-Bis(benzyloxycarbonyl)-3-[2-(benzyloxycarbony)ethyl)]-3-pentyl]-N′-[1,7-bis-(t-butoxycarbony)amino-[4-(3-(t-butyloxycarbonyl)propyl]-4-heptyl]butanedioic diamide]", "values": [{"measurement": "melting point", "result": "95 to 96", "unit": "°C"}]}, {"molecule": "Nc1nc2ncc(CNc3ccc(C(=O)N[C@@H](CCC(=O)O)C(=O)O)cc3)nc2c(=O)[nH]1", "note": "[folic acid]", "values": [{"measurement": "binding by MA104 cells", "setting": "[6]", "result": "1-2 pmol folic acid/10^6 cells"}]}, {"molecule": "Gd-DO3A-APA-(γ)-folate", "values": [{"measurement": "radioactivity lost from loaded KB cells to the incubation medium", "setting": "[7]", "result": 20, "unit": "%"}, {"measurement": "radioactivity from loaded JAR cells found in the medium", "setting": "[8]; after 6 hours, 37° C., medium with cold native folate, FIG. 4B", "result": 30, "unit": "%"}, {"measurement": "amount of compound washed from the JAR cells", "setting": "[8]; at 24 hours", "result": "similar"}]}, {"molecule": "Bis(^153Gd-DO3A-APA)-folate", "values": [{"measurement": "Tumor % ID/g", "setting": "[9]", "result": "1.48 (0.12) % ID/g"}, {"measurement": "[Gd] in tumor tissue", "setting": "[9]; calculated from % ID/g", "result": "55 (4) μM"}]}]}
